Data published in EP1116727B1, “PEPTIDE DERIVATIVE” (Takeda Chemical Industries, Ltd., priority 1998, dated 2000).
pEC50: −log10 of the molar value. Non-standard residues stand in square brackets, D forms with d. Residues, ends and D or L forms follow the SMILES beside them. No end group written: not given here. Phe(4-Cl) = N[C@@H](Cc1ccc(Cl)cc1)C(=O)O; Cha = N[C@@H](CC1CCCCC1)C(=O)O; Nle = CCCC[C@H](N)C(=O)O

biological target: T1, APJ (Homo sapiens, UniProt P35414); assay: Suppression activity on forskolin stimulated cAMP production; assay type: cell-based; conditions: suppression of cAMP production stimulated with 1 µM forskolin; CHO-A10 clone cells; 37°C for 30 minutes; cAMP EIA
T1 construct: expressed in transfected cells; host or cells: CHO cells (CHO-A10 clone)
T1 sequence (P35414 1-380): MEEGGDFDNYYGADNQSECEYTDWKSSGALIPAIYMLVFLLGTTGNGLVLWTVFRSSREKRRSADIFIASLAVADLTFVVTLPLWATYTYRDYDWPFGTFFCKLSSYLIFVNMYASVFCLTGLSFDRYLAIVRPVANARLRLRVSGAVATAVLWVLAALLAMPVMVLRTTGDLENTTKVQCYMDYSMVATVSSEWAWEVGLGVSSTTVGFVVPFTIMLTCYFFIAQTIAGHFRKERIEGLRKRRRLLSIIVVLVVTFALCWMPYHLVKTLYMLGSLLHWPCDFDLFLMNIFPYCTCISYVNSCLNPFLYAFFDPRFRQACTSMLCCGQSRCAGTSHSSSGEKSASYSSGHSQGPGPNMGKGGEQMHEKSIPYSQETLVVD
Method: Subsequently, after washing with 500 µl of the assay buffer once, 500 µl each of the sample dissolved in the assay buffer added with 1 µM of forskolin were put into each well to incubate at 37°C for 30 minutes. Wells incubated with assay buffer added with no forskolin were prepared to know the basic cAMP production of cells (basal level), and similarly, wells incubated with assay buffer added with forskolin were also prepared to know the maximum cAMP production with stimulation of foskolin (maximum level). After completion of incubation, each well was washed with 500 µl of the assay buffer once, added with 500 µl of the lysis buffer IB included in the cAMP EIA system (Amersham Pharmacia Biotech) and extraction of cAMP was carried out. Following the prescription for the kit, a portion of 100 µl each of the extracts was used to assay. The level of suppression activity on cAMP production was calculated by taking the difference between the maximum level and cAMP in the wells that was added with a sample (amount of the suppression of cAMP production), and by taking it as a percentage relative to the increased production (difference between maximum level and basal level) in cAMP associated with forskolin stimulation, and EC50 was determined based on the dose response curve.

`CSCC[C@H](NC(=O)[C@@H]1CCCN1C(=O)CNC(=O)[C@H](CCCCN)NC(=O)[C@H](Cc1c[nH]cn1)NC(=O)[C@H](CO)NC(=O)[C@H](CC(C)C)NC(=O)[C@H](CCCNC(=N)N)NC(=O)[C@@H]1CCCN1C(=O)[C@@H](N)CCCNC(=N)N)C(=O)N1CCC[C@H]1C(=O)N[C@@H](Cc1ccc(Cl)cc1)C(=O)O` [Example 32] and `CSCC[C@H](NC(=O)[C@@H]1CCCN1C(=O)CNC(=O)[C@H](CCCCN)NC(=O)[C@H](Cc1c[nH]cn1)NC(=O)[C@H](CO)NC(=O)[C@H](CC(C)C)NC(=O)[C@H](CCCNC(=N)N)NC(=O)[C@@H]1CCCN1C(=O)[C@@H](N)CCCNC(=N)N)C(=O)N[C@@H](Cc1ccc2ccccc2c1)C(=O)O` [Example 31] are within 0.2 log units of each other in pEC50: 9.70 for the first, 9.52 for the second.

`CSCC[C@H](NC(=O)[C@@H]1CCCN1C(=O)CNC(=O)[C@H](CCCCN)NC(=O)[C@H](Cc1c[nH]cn1)NC(=O)[C@H](CO)NC(=O)[C@H](CC(C)C)NC(=O)[C@H](CCCNC(=N)N)NC(=O)[C@@H]1CCCN1C(=O)[C@H](CCCNC(=N)N)NC(=O)[C@H](CCC(N)=O)NC(=O)[C@H](CCCNC(=N)N)NC(=O)[C@@H](N)CCCNC(=N)N)C(=O)N1CCC[C@H]1C(=O)N[C@@H](Cc1ccc(Cl)cc1)C(=O)O` [Example 37] and `CSCC[C@H](NC(=O)[C@@H]1CCCN1C(=O)CNC(=O)[C@H](CCCCN)NC(=O)[C@H](Cc1c[nH]cn1)NC(=O)[C@H](CO)NC(=O)[C@H](CC(C)C)NC(=O)[C@H](CCCNC(=N)N)NC(=O)[C@@H]1CCCN1C(=O)[C@@H](N)CCCNC(=N)N)C(=O)N[C@@H](Cc1ccc(Cl)cc1)C(=O)O` [Example 33] are within 0.2 log units of each other in pEC50: 9.85 for the first, 10.00 for the second.

`CSCC[C@H](NC(=O)[C@@H]1CCCN1C(=O)CNC(=O)[C@H](CCCCN)NC(=O)[C@H](Cc1c[nH]cn1)NC(=O)[C@H](CO)NC(=O)[C@H](CC(C)C)NC(=O)[C@H](CCCNC(=N)N)NC(=O)[C@@H]1CCCN1C(=O)[C@@H](N)CCCNC(=N)N)C(=O)N1CCC[C@H]1C(=O)N[C@@H](Cc1ccc2ccccc2c1)C(=O)O` [Example 30] and `CC(C)C[C@H](NC(=O)[C@H](CCCNC(=N)N)NC(=O)[C@@H]1CCCN1C(=O)[C@H](CCCNC(=N)N)NC(=O)[C@@H]1CCC(=O)N1)C(=O)N[C@@H](CO)C(=O)N[C@@H](Cc1c[nH]cn1)C(=O)N[C@@H](CCCCN)C(=O)NCC(=O)N1CCC[C@H]1C(=O)N[C@@H](CC1CCCCC1)C(=O)N1CCC[C@H]1C(=O)N[C@@H](Cc1ccccc1)C(=O)O` [Example 35] are within 0.2 log units of each other in pEC50: 9.55 for the first, 9.47 for the second.

`CCCC[C@H](NC(=O)[C@@H]1CCCN1C(=O)CNC(=O)[C@H](CCCCN)NC(=O)[C@H](Cc1c[nH]cn1)NC(=O)[C@H](CO)NC(=O)[C@H](CC(C)C)NC(=O)[C@H](CCCNC(=N)N)NC(=O)[C@@H]1CCCN1C(=O)[C@H](CCCNC(=N)N)NC(=O)[C@H](CCC(N)=O)NC(=O)[C@H](CCCNC(=N)N)NC(=O)[C@H](CCCNC(=N)N)NC(=O)[C@H](Cc1ccccc1)NC(=O)[C@H](CCCCN)NC(=O)[C@H](CCCNC(=N)N)NC(=O)[C@H](CCCNC(=N)N)NC(=O)CNC(=O)CNC(=O)[C@H](CCC(N)=O)NC(=O)[C@H](Cc1c[nH]c2ccccc12)NC(=O)[C@@H]1CCCN1C(=O)CNC(=O)[C@@H]1CCCN1C(=O)CNC(=O)[C@H](CC(N)=O)NC(=O)[C@H](CCCNC(=N)N)NC(=O)[C@H](CO)NC(=O)CNC(=O)[C@H](CCCNC(=N)N)NC(=O)[C@@H]1CCCN1C(=O)[C@H](CCC(N)=O)NC(=O)[C@@H](NC(=O)[C@@H](N)CC(C)C)C(C)C)C(=O)N1CCC[C@H]1C(=O)N[C@@H](Cc1ccc(O)cc1)C(=O)O` [Example 2] (H-LVQPRGSRNGPGPWQGGRRKFRRQRPRLSHKGP[Nle]PY-OH) and `CSCC[C@H](NC(=O)[C@@H]1CCCN1C(=O)CNC(=O)[C@H](CCCCN)NC(=O)[C@H](Cc1c[nH]cn1)NC(=O)[C@H](CO)NC(=O)[C@H](CC(C)C)NC(=O)[C@H](CCCNC(=N)N)NC(=O)[C@@H]1CCCN1C(=O)[C@@H](N)CCCNC(=N)N)C(=O)N[C@@H](CC1CCCCC1)C(=O)O` [Example 34] are within 0.2 log units of each other in pEC50: 9.39 for the first, 9.43 for the second.

First: CCCC[C@H](NC(=O)[C@@H]1CCCN1C(=O)CNC(=O)[C@H](CCCCN)NC(=O)[C@H](Cc1c[nH]cn1)NC(=O)[C@H](CO)NC(=O)[C@H](CC(C)C)NC(=O)[C@H](CCCNC(=N)N)NC(=O)[C@@H]1CCCN1C(=O)[C@H](CCCNC(=N)N)NC(=O)[C@@H]1CCC(=O)N1)C(=O)N1CCC[C@H]1C(=O)N[C@@H](Cc1ccc(O)cc1)C(=O)O [Example 4]
Second: CCCC[C@H](NC(=O)[C@H](Cc1c[nH]cn1)NC(=O)[C@H](CO)NC(=O)[C@H](CC(C)C)NC(=O)[C@H](CCCNC(=N)N)NC(=O)[C@@H]1CCCN1C(=O)[C@H](CCCNC(=N)N)NC(=O)[C@H](CCC(N)=O)NC(=O)[C@H](CCCNC(=N)N)NC(=O)[C@@H](N)CCCNC(=N)N)C(=O)NCC(=O)N1CCC[C@H]1C(=O)N[C@@H](CCSC)C(=O)N1CCC[C@H]1C(=O)N[C@@H](Cc1ccc(Cl)cc1)C(=O)O [Example 38] (H-RRQRPRLSH[Nle]GPMP[Phe(4-Cl)]-OH)
The pEC50 of the first is 0.26 log units higher: 9.72 for the first, 9.46 for the second.

Compared with “LVQPRGSRNGPGPWQGGRRKFRRQRPRLSHKGPMPF [reference compound]”, `CC(C)C[C@H](NC(=O)[C@H](CCCNC(=N)N)NC(=O)[C@@H]1CCCN1C(=O)[C@H](CCCNC(=N)N)NC(=O)[C@H](CCC(N)=O)NC(=O)[C@H](CCCNC(=N)N)NC(=O)[C@@H](N)CCCNC(=N)N)C(=O)N[C@@H](CO)C(=O)N[C@@H](Cc1c[nH]cn1)C(=O)N[C@@H](CCCCN)C(=O)NCC(=O)N1CCC[C@H]1C(=O)N[C@@H](CC1CCCCC1)C(=O)O` [Example 36] (H-RRQRPRLSHKGP[Cha]-OH) is 0.52 log units higher in pEC50: 9.28 for the first, 9.80 for the second. The second is the more potent here.
